According to patent US12185723B2, “Herbicidally active 3-phenylisoxazoline-5-carboxamides of s-containing cyclopentenylcarboxylic esters” (Bayer Aktiengesellschaft, priority 2019, dated 2025):

Columns and labels:
Assay type in all cases: in vivo
Veronica persica = test: Post-emergence herbicidal action against VERPE
Method in brief: (§1)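 Greenhouse pot test in sandy loam; plants sprayed at the one-leaf stage (2–3 weeks after sowing) with WP or EC formulations in water plus 0.5% additive at 600 l/ha. Activity rated visually about 3 weeks later against untreated controls (0% = like control, 100% = plants dead).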

Alopecurus myosuroides = test: Post-emergence herbicidal action against ALOMY; settings: visual rating about 3 weeks after treatment
Method in brief: as §1

Avena fatua = test: Post-emergence herbicidal action against AVEFA; settings: visual rating about 3 weeks after treatment
Method in brief: as §1

Matricaria inodora = test: Post-emergence herbicidal action against MATIN
Experimental: (§2) Post-Emergence Herbicidal Action Against Harmful Plants and Crop Plant Compatibility Seeds of monocotyledonous and dicotyledonous weeds and crop plants are placed in sandy loam in plastic or wood-fibre pots, covered with soil and cultivated in a greenhouse under controlled growth conditions. 2 to 3 weeks after sowing, the test plants are treated at the one-leaf stage. The compounds of the invention, formulated in the form of wettable powders (WP) or as emulsion concentrates (EC), are then sprayed onto the green parts of the plants as aqueous suspension or emulsion with addition of 0.5% additive at a water application rate of 600 l/ha (converted). After the test plants have been kept in the greenhouse under optimum growth conditions for about 3 weeks, the activity of the preparations is rated visually in comparison to untreated controls. For example, 100% activity=the plants have died, 0% activity=like control plants. [table]

Viola tricolor = test: Post-emergence herbicidal action against VIOTR
Experimental: as §2

Stellaria media = test: Post-emergence herbicidal action against STEME
Experimental: as §2

Hordeum murinum = test: Post-emergence herbicidal action against HORMU
Experimental: as §2

Abutilon theophrasti = test: Post-emergence herbicidal action against ABUTH; settings: visual rating about 3 weeks after treatment
Method in brief: as §1

Setaria viridis = test: Post-emergence herbicidal action against SETVI; settings: visual rating about 3 weeks after treatment
Method in brief: as §1

DIGSA = test: Post-emergence herbicidal action against DIGSA; settings: visual rating about 3 weeks after treatment
Method in brief: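 Greenhouse-grown plants sprayed at one-leaf stage (2–3 weeks after sowing) with WP or EC formulations as aqueous suspension/emulsion plus 0.5% additive, 600 l/ha water. Activity rated visually about 3 weeks later versus untreated controls, 100% = plants dead, 0% = like controls.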

Echinochloa crus-galli = test: Post-emergence herbicidal action against ECHCG; settings: visual rating about 3 weeks after treatment
Method in brief: as §1

Lolium rigidum = test: Post-emergence herbicidal action against LOLRI; settings: visual rating about 3 weeks after treatment
Method in brief: as §1

Polygonum convolvulus = test: Post-emergence herbicidal action against POLCO
Method in brief: as §1

Amaranthus retroflexus = test: Post-emergence herbicidal action against AMARE
Method in brief: as §1

Pharbitis purpurea = test: Post-emergence herbicidal action against PHBPU
Method in brief: as §1

[1] = 80 g a.i./ha, visual rating about 3 weeks after treatment

SMILES | Herbicidal action against [%] VERPE (Veronica persica; 20 g a.i./ha) | Herbicidal action against [%] VERPE (Veronica persica; 80 g a.i./ha) | Herbicidal action against [%] ALOMY (Alopecurus myosuroides; 20 g a.i./ha) | Herbicidal action against [%] ALOMY (Alopecurus myosuroides; 80 g a.i./ha) | Herbicidal action against [%] AVEFA (Avena fatua; 20 g a.i./ha) | Herbicidal action against [%] AVEFA (Avena fatua; 80 g a.i./ha) | Herbicidal action against [%] MATIN (Matricaria inodora; [1]) | Herbicidal action against [%] VIOTR (Viola tricolor; 20 g a.i./ha) | Herbicidal action against [%] STEME (Stellaria media; 20 g a.i./ha) | Herbicidal action against [%] STEME (Stellaria media; 80 g a.i./ha) | Herbicidal action against [%] HORMU (Hordeum murinum; 20 g a.i./ha) | Herbicidal action against [%] HORMU (Hordeum murinum; 80 g a.i./ha) | Herbicidal action against [%] ABUTH (Abutilon theophrasti; 80 g a.i./ha) | Herbicidal action against [%] SETVI (Setaria viridis; 20 g a.i./ha) | Herbicidal action against [%] SETVI (Setaria viridis; 80 g a.i./ha) | Herbicidal action against [%] DIGSA (DIGSA; 20 g a.i./ha) | Herbicidal action against [%] DIGSA (DIGSA; 80 g a.i./ha) | Herbicidal action against [%] ECHCG (Echinochloa crus-galli; 80 g a.i./ha) | Herbicidal action against [%] LOLRI (Lolium rigidum; 20 g a.i./ha) | Herbicidal action against [%] LOLRI (Lolium rigidum; 80 g a.i./ha) | also measured
CSCCOC(=O)[C@@H]1C=C[C@H](NC(=O)C2(C(F)(F)F)CC(c3cc(F)cc(Cl)c3)=NO2)C1 (stereo partly drawn) [Example I-33, 2-methylsulfanylethyl (1S,4R)-4-[[3-(3-chloro-5-fluorophenyl)-5-(trifluoromethyl)-4H-isoxazole-5-carbonyl]amino]cyclopent-2-ene-1-carboxylate] | 80% | 80% | 80% | 90% | 80% | 100% | 80% | 90% | 90% | 90% | 80% | 90% | 80% | 80% | 80% | 80% | 80% | 80% | 90% | 90% | Herbicidal action against [%] MATIN (Matricaria inodora; 20 g a.i./ha): 80%; Herbicidal action against [%] ABUTH (Abutilon theophrasti; 20 g a.i./ha): 80%
CSCCOC(=O)C1=CC(NC(=O)C2(C)CC(c3cc(F)cc(F)c3)=NO2)CC1 (centres unmarked) [Example I-51] | 90% | 90% | 90% | 90% | 100% | 100% | 80% | 90% | 90% | 90% | 90% | 90% | – | 80% | 80% | 80% | 80% | 90% | 90% | 100% | Herbicidal action against [%] POLCO (Polygonum convolvulus; 80 g a.i./ha): 80%; Herbicidal action against [%] AMARE (Amaranthus retroflexus; [1]): 80%; Herbicidal action against [%] PHBPU (Pharbitis purpurea; 80 g a.i./ha): 80%; Herbicidal action against [%] ECHCG (Echinochloa crus-galli; 20 g a.i./ha): 80%
COC1(C(=O)NC2C=CC(C(=O)OCCSC)C2)CC(c2cccc(F)c2)=NO1 (mixture of isomers) [Example I-36] | 80% | 80% | – | 80% | – | 80% | 80% | 80% | 80% | 80% | – | – | 80% | – | – | – | – | – | – | – | Herbicidal action against [%] PHBPU (Pharbitis purpurea; 20 g a.i./ha): 80%; Herbicidal action against [%] PHBPU (Pharbitis purpurea; 80 g a.i./ha): 80%
CSCCOC(=O)C1C=CC(NC(=O)C2(C)CC(c3cc(F)cc(Cl)c3)=NO2)C1 (centres unmarked) [Example I-32] | 80% | 90% | 90% | 100% | 90% | 90% | 80% | 80% | 80% | 90% | 80% | 80% | – | 80% | 80% | 80% | 80% | 80% | 90% | 90% | Herbicidal action against [%] AMARE (Amaranthus retroflexus; [1]): 80%; Herbicidal action against [%] MATIN (Matricaria inodora; 20 g a.i./ha): 80%; Herbicidal action against [%] PHBPU (Pharbitis purpurea; 80 g a.i./ha): 80%; Herbicidal action against [%] ECHCG (Echinochloa crus-galli; 20 g a.i./ha): 80%
C=CC1(C(=O)NC2CC=C(C(=O)OCCSC)C2)CC(c2cc(F)cc(F)c2)=NO1 (centres unmarked) [Example I-50] | – | 90% | – | 100% | 90% | 100% | – | 80% | 80% | 90% | 100% | 100% | 80% | – | 90% | 90% | 90% | 90% | – | 100% | Herbicidal action against [%] POLCO (Polygonum convolvulus; 20 g a.i./ha): 80%; Herbicidal action against [%] POLCO (Polygonum convolvulus; 80 g a.i./ha): 90%; Herbicidal action against [%] AMARE (Amaranthus retroflexus; 20 g a.i./ha): 90%; Herbicidal action against [%] AMARE (Amaranthus retroflexus; [1]): 90%; Herbicidal action against [%] VIOTR (Viola tricolor; 80 g a.i./ha): 90%; Herbicidal action against [%] PHBPU (Pharbitis purpurea; 20 g a.i./ha): 90%; Herbicidal action against [%] PHBPU (Pharbitis purpurea; 80 g a.i./ha): 90%
CSCCOC(=O)C1C=CC(NC(=O)C2(C)CC(c3cccc(F)c3)=NO2)C1 (centres unmarked) [Example I-34] | 90% | 90% | 100% | 100% | 90% | 90% | – | 90% | 90% | 90% | 80% | 80% | 80% | 80% | 80% | 80% | 80% | 80% | 100% | 100% | Herbicidal action against [%] POLCO (Polygonum convolvulus; 20 g a.i./ha): 80%; Herbicidal action against [%] POLCO (Polygonum convolvulus; 80 g a.i./ha): 90%; Herbicidal action against [%] VIOTR (Viola tricolor; 80 g a.i./ha): 80%; Herbicidal action against [%] PHBPU (Pharbitis purpurea; 20 g a.i./ha): 90%; Herbicidal action against [%] PHBPU (Pharbitis purpurea; 80 g a.i./ha): 90%; Herbicidal action against [%] ECHCG (Echinochloa crus-galli; 20 g a.i./ha): 80%
CSCCOC(=O)C1C=CC(NC(=O)C2(C3CC3)CC(c3cc(F)cc(F)c3)=NO2)C1 (centres unmarked) [Example I-28] | 90% | 90% | 90% | 90% | 90% | 90% | 90% | 90% | 90% | 90% | 90% | 90% | 90% | 90% | 90% | 90% | 90% | 90% | 90% | 90% | Herbicidal action against [%] POLCO (Polygonum convolvulus; 20 g a.i./ha): 80%; Herbicidal action against [%] POLCO (Polygonum convolvulus; 80 g a.i./ha): 90%; Herbicidal action against [%] AMARE (Amaranthus retroflexus; 20 g a.i./ha): 80%; Herbicidal action against [%] AMARE (Amaranthus retroflexus; [1]): 80%; Herbicidal action against [%] MATIN (Matricaria inodora; 20 g a.i./ha): 80%; Herbicidal action against [%] VIOTR (Viola tricolor; 80 g a.i./ha): 80%; Herbicidal action against [%] ABUTH (Abutilon theophrasti; 20 g a.i./ha): 90%; Herbicidal action against [%] ECHCG (Echinochloa crus-galli; 20 g a.i./ha): 90%
C=CC1(C(=O)NC2C=CC(C(=O)OCCSC)C2)CC(c2cc(C)cc(F)c2)=NO1 (mixture of isomers) [Example I-47] | 80% | 80% | 90% | 90% | 80% | 90% | 80% | 90% | 90% | 90% | – | 80% | – | 80% | 80% | 80% | 90% | 80% | 80% | 80% | Herbicidal action against [%] AMARE (Amaranthus retroflexus; [1]): 100%
